Earlier results, collected in patent publication US20120046321A1, “METHODS OF TREATING ATRIAL FIBRILLATION WITH P38 INHIBITOR COMPOUNDS” (INTERMUNE, INC., priority 2005, published 2012).

Test system: canine model, VTP-induced CHF
Conditions: Li et al., Circulation 2001; cited from earlier work

CCOC(=O)[C@H](CCc1ccccc1)N[C@@H](C)C(=O)N1CCC[C@H]1C(=O)O [enalapril]
Ang II concentration: reduction | Arrhythmogenic atrial remodeling: less | ERK activation: reduction
